Source: patent publication US20250276008A1, “USE OF LITHIUM-CONTAINING COMPOUNDS IN TREATMENT OF TUMORS” (Institute of Basic Medical Sciences Chinese Academy of …, priority 2023, published 2025)

Key:
CD8^+ T cells [1] = assay: Cytosolic Ca2+ / lysosomal Ca2+ release in CD8+ T cells; assay type: cell-based, mouse; details: for Ca^2+ release in lactic acid-treated CD8^+ T cells: increasing lysosomal pH value; for increase in cytosolic Ca^2+ concentrations in CD8^+ T cells induced by LC: blocking calcium release from endoplasmic reticulum or mitochondria
Text: Next, we investigated the molecular mechanism by which LC activated TFEB in CD8^+ T cells. It has been reported (Nat Cell Biol. 2015 March;17(3):288-99) that in addition to being able to degrade exogenous or endogenous biomacromolecules, lysosomes, like endoplasmic reticulum and mitochondria, are also storage sites for Ca^2+ and can initiate the transduction of calcium-related downstream signals.
(§1) In order to better track the flow of H^+, ^2D (deuterium)-acetic acid (DAC) or ^2D-sulfuric acid (D2SO4) was added to the culture medium of CD8^+ T cells. […] The K-loop of V-ATPase is located in the hydrophobic lipid bilayer and is essential for the pumping of cytosolic H^+ into the lysosomal lumen. Li^+ has been reported to bind to the K-loop of V-ATPase in Enterococcus hirde and induce deprotonation of the Glul39 residue (J. Am. Chem. Soc. 2011.133. 2860-2863).

MCT1 = assay: Localization of MCT1 to mitochondria (Western blot of isolated T cell mitochondria); assay type: cell-based, mouse; details: for expression / localization of MCT1 in mitochondria: Western blot of isolated T cell mitochondria
Text: The inventor further explored the molecular mechanism by which LC led to the shunting of lactic acid to mitochondria. Entry of lactic acid into mitochondria requires the localization of MCT1 to the inner mitochondrial membrane IMM (Redox Biol. 2020 August;35:101454). […] MCT1 is generally recognized as a secreted protein with an endoplasmic reticulum-targeting sequence that enters the endoplasmic reticulum and localizes to the plasma membrane. We hypothesized that LC could induce MCT1 variants with mitochondrial targeting sequences (MTSs). However, no MCT1 variant was found in LC-treated T cells by sequencing analysis, and only one transcript of MCT1 was found after alignment analysis on NCBI. A MTS was found at the N-terminus of MCT-1protein by protein sequence analysis, which was present downstream of the endoplasmic reticulum targeting sequence, forming a double-peak chimeric sequence. This double-peak sequence may direct MCT-1 to target the endoplasmic reticulum or mitochondria, and may be regulated by serine/threonine phosphorylation of PKA or PKC (Avadhani, N. G. 2011. FEBS J 278, 4218-4229).

CD8^+ T cells [2] = assay: Lactyl-CoA (LC-MS/MS) and histone lactylation (Western blot, anti-pan-Kla) in CD8+ T cells; assay type: cell-based, mouse; details: after treating CD8+ T cells with exogenous lactic acid
Text: We further investigated the effect of lactic acid distributed in the nucleus on the function of CD8^+ T cells. In 2019, Zhao […] team discovered a new type of histone epigenetic modification, lactylation modification (Kla), which can regulate the phenotype and function of macrophages (Nature. 2019 October: 574 (7779): 575-580). On this basis, we hypothesized that lactic acid entering the nucleus would lead to lactylation modification of histones, thereby regulating the function of CD8^+ T cells.

CD8^+ T cells [3] = assay: Entry and subcellular distribution of lactate and hydrogen ions in CD8+ T cells (lysosensor, LC-MS/MS); assay type: cell-based, mouse
Description: CD8^+ T cells were treated with exogenous hydrochloric acid (HCl) or sodium lactate (NaLa) as controls, and the entry of lactate and hydrogen ions into the cells was detected.
When exogenous lactic acid enters the cell, excess hydrogen ions are further transported to acidic organelles, such as lysosomes, in order to maintain the stability of the cytoplasmic pH values.

V-ATPase = assay: V0C expression, V-ATPase activity and lysosomal pH in lactic acid-treated CD8+ T cells; assay type: cell-based, mouse
Description: In order to further elucidate the mechanism by which histone lactylation modification regulates T cell function, the downstream target genes regulated by histone lactylation modification were explored by using ChIP-Seq experiments, and the enrichment scores of genes corresponding to histone lactylation sites were calculated. […] ATP6V0C gene encodes the V0 subunit C protein in V-ATPase that plays a key role in pumping H^+, which is responsible for pumping cytosolic H^+ into the lysosomal lumen and thus maintaining the low pH value of lysosomes. […] Therefore, exogenous lactic acid results in lactylation of histones and thus up-regulating ATP6V0C expression and activity, thereby shunting cytosolic H^+ into lysosomes in response to cytosolic acid stress, but lysosomal acidification may inhibit the activity of CD8^+ T cells.

CD8^+ T cells [4] = assay: Exogenous lactic acid on CD3/CD28-activated CD8+ T cells (flow cytometry, qPCR, ELISA, CTV); assay type: cell-based, C57BL/6J mouse; details: exogenous lactic acid at different concentrations, dose-dependent
Text: In order to further explore the effect of lactic acid on CD8^+ T cells, we used C57BL/6J mouse spleen-derived CD8^+ T cells to be activated by CD3/CD28 magnetic beads and stimulated by exogenous lactic acid at different concentrations.

lysosomal V-ATPase = assay: Lysosomal pH, Atp6v0c, H+ (deuterium) flow and Li+ accumulation in CD8+ T cells; assay type: cell-based, mouse
Description: as §1

CCN(CC)CCCC(C)Nc1ccnc2cc(Cl)ccc12 (stereo not drawn) [chloroquine]
Ca^2+ release in lactic acid-treated CD8^+ T cells (CD8^+ T cells [1]): promote

CN1CCN(c2nc(C3=C(c4c[nH]c5ccccc45)C(=O)NC3=O)c3ccccc3n2)CC1 [Sotrastaurin]
localization of MCT1 to mitochondria induced by LC (MCT1; kinase inhibitors added, results not shown): almost completely blocked

O=C1CSC(c2ccccc2Cl)c2cc(Cl)ccc2N1 (stereo not drawn) [CGP37157]
increase in cytosolic Ca^2+ concentrations in CD8^+ T cells induced by LC (CD8^+ T cells [1]): did not affect

Ryanodine
increase in cytosolic Ca^2+ concentrations in CD8^+ T cells induced by LC (CD8^+ T cells [1]): did not affect

CCCCCCCCCCCCCC(=O)O[C@@H]1[C@@H](C)[C@@]2(O)[C@@H](C=C(CO)C[C@]3(O)C(=O)C(C)=C[C@@H]23)[C@@H]2C(C)(C)[C@]12OC(C)=O [PMA]
expression / localization of MCT1 in mitochondria (MCT1): significantly increased

CC(O)C(=O)O (stereo not drawn) [lactic acid]
content of lactyl-CoA (LC-MS/MS) (CD8^+ T cells [2]): significantly increased
level of histone lactylation (Western blotting, anti-pan-Kla antibody) (CD8^+ T cells [2]): significantly increased
lysosome acidification (lysosensor staining) (CD8^+ T cells [3]): rapidly acidify lysosomes
entry of lactate and hydrogen ions into the cells (CD8^+ T cells [3]; HCl or sodium lactate as controls): simultaneously transported into the cells
activity of V-ATPase (V-ATPase; CD8+ T cells): significantly up-regulated
protein expression of V0C (V-ATPase; CD8+ T cells): significantly up-regulated
lysosomal pH value (V-ATPase; exogenous lactic acid, decreasing from 5.4): 4.4
activation of CD8^+ T cells (CD25 expression; gene and protein expression of IL-2, IFN-γ, TNF-α) (CD8^+ T cells [4]; CD3/CD28 magnetic beads): significantly inhibited
apoptosis of CD8^+ T cells (CD8^+ T cells [4]): significantly promoted
proliferation of CD8^+ T cells (CTV proliferation assay) (CD8^+ T cells [4]): significantly inhibited
expression of lysosome-related gene Atp6v0c (lysosomal V-ATPase): significantly up-regulated
lactylation of the Atp6v0c gene (ChIP-seq) (lysosomal V-ATPase): high level of lactylation
expression / localization of MCT1 in mitochondria (MCT1): significantly reduced

CO/C1=C\C(C)=C\[C@@H](C)[C@@H](O)[C@@H](C)C/C(C)=C/C=C/[C@H](OC)[C@@H]([C@@H](C)[C@@H](O)[C@H](C)[C@@]2(O)C[C@@H](O)[C@H](C)[C@@H](C(C)C)O2)OC1=O [bafilomycin A1]
Ca^2+ release (CD8^+ T cells [1]; LC-treated CD8+ T cells with bafilomycin A1): reduced
Ca^2+ release in lactic acid-treated CD8^+ T cells (CD8^+ T cells [1]): promote
entry of Li^+ into lysosomes (lysosomal V-ATPase; LC-treated CD8+ T cells): blocked
